Data taken from PubChem BioAssay AID1918995 (Molecular Pharmacology Branch, DTP, NCI, 2023).

Test system: 324938-238-R-J1-PDC complex spheroid growth, % test/control
Experiment: Anticancer human tumor 324938-238-R-J1-PDC patient-derived bladder carcinoma cell line growth inhibition [AhR]
Settings: for IC50: curve of first compound; for viability, T/C: stronger effect = lower value
Summary of the method: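 Spheroids combined tumor cells with HUVEC endothelial cells and human MSCs as stroma. AhR antagonists were paired with standard or investigational drugs, each dosed in half-log steps down from near clinical Cmax, or from 10 microM where Cmax was unknown.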

[1] = second compound 0.1 µM, first compound 0.0316 µM
[2] = second compound 0.1 µM, first compound 0.1 µM
[3] = second compound 0.1 µM, first compound 0.316 µM
[4] = second compound 0.1 µM, first compound 1 µM
[5] = second compound 0.1 µM, first compound 3.16 µM
[6] = second compound 0.1 µM, first compound 10 µM
[7] = second compound 0.316 µM, first compound 0.0316 µM
[8] = second compound 0.316 µM, first compound 0.1 µM
[9] = second compound 0.316 µM, first compound 0.316 µM
[10] = second compound 0.316 µM, first compound 1 µM
[11] = second compound 0.316 µM, first compound 3.16 µM
[12] = second compound 0.316 µM, first compound 10 µM
[13] = second compound 1 µM, first compound 0.0316 µM
[14] = second compound 1 µM, first compound 0.1 µM
[15] = second compound 1 µM, first compound 0.316 µM
[16] = second compound 1 µM, first compound 1 µM
[17] = second compound 1 µM, first compound 3.16 µM
[18] = second compound 1 µM, first compound 10 µM
[19] = second compound 3.16 µM, first compound 0.0316 µM
[20] = second compound 3.16 µM, first compound 0.1 µM
[21] = second compound 3.16 µM, first compound 0.316 µM
[22] = second compound 3.16 µM, first compound 1 µM
[23] = second compound 3.16 µM, first compound 3.16 µM
[24] = second compound 3.16 µM, first compound 10 µM
[25] = second compound 10 µM, first compound 0.0316 µM
[26] = second compound 10 µM, first compound 0.1 µM
[27] = second compound 10 µM, first compound 0.316 µM
[28] = second compound 10 µM, first compound 1 µM
[29] = second compound 10 µM, first compound 3.16 µM
[30] = second compound 10 µM, first compound 10 µM
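Further: spheroids exposed to agents for seven days before viability read.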

SMILES	IC50 (second compound 0.1 µM)	IC50 (second compound 0.316 µM)	IC50 (second compound 1 µM)	IC50 (second compound 3.16 µM)	IC50 (second compound 10 µM)	viability, T/C [1]	viability, T/C [2]	viability, T/C [3]	viability, T/C [4]	viability, T/C [5]	viability, T/C [6]	viability, T/C [7]	viability, T/C [8]	viability, T/C [9]	viability, T/C [13]	viability, T/C [14]	viability, T/C [19]	viability, T/C [20]	viability, T/C [25]	viability, T/C [26]	further results
COc1cc(Nc2ncc3c(n2)-c2ccc(Cl)cc2C(c2c(F)cccc2OC)=NC3)ccc1C(=O)O + CC(CO)NC(=O)c1cc(-c2ccc(Cl)cc2)nn(-c2cnn(C)c2)c1=O	76.2 nM	79.1 nM	72.8 nM	< 31.6 nM	< 31.6 nM	77%	41.7%	23.5%	23.6%	24.7%	31%	71.7%	44.5%	27.4%	60.1%	46.1%	49.4%	42.5%	54.7%	40.4%	viability, T/C [10]: 25.4%; viability, T/C [11]: 23.8%; viability, T/C [12]: 30.1%; viability, T/C [15]: 27.6%; viability, T/C [16]: 28.6%; viability, T/C [17]: 26.9%; viability, T/C [18]: 29.2%; viability, T/C [21]: 30%; viability, T/C [22]: 25.7%; viability, T/C [23]: 28.2%; viability, T/C [24]: 29.8%; viability, T/C [27]: 32.8%; viability, T/C [28]: 34.9%; viability, T/C [29]: 31.9%; viability, T/C [30]: 39.7%
Cn1ncnc1C1c2n[nH]c(=O)c3cc(F)cc(c23)NC1c1ccc(F)cc1 (stereo not given) + CC(CO)NC(=O)c1cc(-c2ccc(Cl)cc2)nn(-c2cnn(C)c2)c1=O	> 100 nM	91.9 nM	> 100 nM	60.6 nM	18.7 nM	61.4%	58.5%					62.9%	48.9%		61%	53.5%	52.1%	47.3%	44.5%	43%	viability, T/C (second compound 0.1 µM, first compound 0.000316 µM): 93.4%; viability, T/C (second compound 0.1 µM, first compound 0.001 µM): 107%; viability, T/C (second compound 0.1 µM, first compound 0.00316 µM): 87.1%; viability, T/C (second compound 0.1 µM, first compound 0.01 µM): 76.3%; viability, T/C (second compound 0.316 µM, first compound 0.000316 µM): 83.5%; viability, T/C (second compound 0.316 µM, first compound 0.001 µM): 92.8%; viability, T/C (second compound 0.316 µM, first compound 0.00316 µM): 92.7%; viability, T/C (second compound 0.316 µM, first compound 0.01 µM): 81.7%; viability, T/C (second compound 1 µM, first compound 0.000316 µM): 76.8%; viability, T/C (second compound 1 µM, first compound 0.001 µM): 82.2%; viability, T/C (second compound 1 µM, first compound 0.00316 µM): 79.2%; viability, T/C (second compound 1 µM, first compound 0.01 µM): 69.6%; viability, T/C (second compound 3.16 µM, first compound 0.000316 µM): 67.6%; viability, T/C (second compound 3.16 µM, first compound 0.001 µM): 71.9%; viability, T/C (second compound 3.16 µM, first compound 0.00316 µM): 71%; viability, T/C (second compound 3.16 µM, first compound 0.01 µM): 61.5%; viability, T/C (second compound 10 µM, first compound 0.000316 µM): 67.3%; viability, T/C (second compound 10 µM, first compound 0.001 µM): 65.8%; viability, T/C (second compound 10 µM, first compound 0.00316 µM): 60.7%; viability, T/C (second compound 10 µM, first compound 0.01 µM): 53%
NS(=O)(=O)OCC1CC(n2ccc3c(NC4CCc5ccccc54)ncnc32)CC1O (stereo not given) + CC(CO)NC(=O)c1cc(-c2ccc(Cl)cc2)nn(-c2cnn(C)c2)c1=O	534 nM	558 nM	586 nM	450 nM	379 nM	90.3%	96.4%	66.8%	31.1%	25.3%	28.9%	88.5%	101%	64%	77.1%	82.2%	69.9%	67.8%	61.5%	58.6%	viability, T/C [10]: 37.3%; viability, T/C [11]: 21.9%; viability, T/C [12]: 27.1%; viability, T/C [15]: 64.1%; viability, T/C [16]: 38.2%; viability, T/C [17]: 22.9%; viability, T/C [18]: 29.1%; viability, T/C [21]: 55.4%; viability, T/C [22]: 37.3%; viability, T/C [23]: 27.5%; viability, T/C [24]: 26.9%; viability, T/C [27]: 51.5%; viability, T/C [28]: 40.8%; viability, T/C [29]: 29.1%; viability, T/C [30]: 30.5%
O=C(C=Cc1cccc(S(=O)(=O)Nc2ccccc2)c1)NO + CC(CO)NC(=O)c1cc(-c2ccc(Cl)cc2)nn(-c2cnn(C)c2)c1=O	3180 nM	3490 nM	3180 nM	3390 nM	3550 nM	103%	108%	96.1%	67.4%	56.7%	3.34%	94%	92.7%	85.4%	93.2%	93.9%	74.6%	83.9%	70.6%	78.8%	viability, T/C [10]: 73.5%; viability, T/C [11]: 56%; viability, T/C [12]: 10.6%; viability, T/C [15]: 89.3%; viability, T/C [16]: 65%; viability, T/C [17]: 55.1%; viability, T/C [18]: 6.82%; viability, T/C [21]: 77.4%; viability, T/C [22]: 67%; viability, T/C [23]: 54.4%; viability, T/C [24]: 4.74%; viability, T/C [27]: 76.9%; viability, T/C [28]: 71.6%; viability, T/C [29]: 55.4%; viability, T/C [30]: 2.36%
